Measured values reported in patent publication US10479784B2, “Substituted pyrazin-2-amines as inhibitors of ATR kinase” (Vertex Pharmaceuticals Incorporated, priority 2008, dated 2019).

Molecular target: full-length ATR (Homo sapiens (Human), UniProt Q13535)
Assay: ATR Inhibition Assay (radioactive-phosphate incorporation)
Assay type: biochemical
Conditions: read-out: ATR Ki
How it was run: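 Full-length human ATR (5 nM) was assayed at 25 °C in 50 mM Tris/HCl pH 7.5, 10 mM MgCl2, 1 mM DTT, with 10 μM [γ-33P]ATP and 800 μM peptide, after 10-min compound preincubation. Reactions were stopped after 24 h, captured on phosphocellulose and counted; Ki(app) came from non-linear regression of initial rates.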

full-length ATR, sequence (Q13535 whole entry): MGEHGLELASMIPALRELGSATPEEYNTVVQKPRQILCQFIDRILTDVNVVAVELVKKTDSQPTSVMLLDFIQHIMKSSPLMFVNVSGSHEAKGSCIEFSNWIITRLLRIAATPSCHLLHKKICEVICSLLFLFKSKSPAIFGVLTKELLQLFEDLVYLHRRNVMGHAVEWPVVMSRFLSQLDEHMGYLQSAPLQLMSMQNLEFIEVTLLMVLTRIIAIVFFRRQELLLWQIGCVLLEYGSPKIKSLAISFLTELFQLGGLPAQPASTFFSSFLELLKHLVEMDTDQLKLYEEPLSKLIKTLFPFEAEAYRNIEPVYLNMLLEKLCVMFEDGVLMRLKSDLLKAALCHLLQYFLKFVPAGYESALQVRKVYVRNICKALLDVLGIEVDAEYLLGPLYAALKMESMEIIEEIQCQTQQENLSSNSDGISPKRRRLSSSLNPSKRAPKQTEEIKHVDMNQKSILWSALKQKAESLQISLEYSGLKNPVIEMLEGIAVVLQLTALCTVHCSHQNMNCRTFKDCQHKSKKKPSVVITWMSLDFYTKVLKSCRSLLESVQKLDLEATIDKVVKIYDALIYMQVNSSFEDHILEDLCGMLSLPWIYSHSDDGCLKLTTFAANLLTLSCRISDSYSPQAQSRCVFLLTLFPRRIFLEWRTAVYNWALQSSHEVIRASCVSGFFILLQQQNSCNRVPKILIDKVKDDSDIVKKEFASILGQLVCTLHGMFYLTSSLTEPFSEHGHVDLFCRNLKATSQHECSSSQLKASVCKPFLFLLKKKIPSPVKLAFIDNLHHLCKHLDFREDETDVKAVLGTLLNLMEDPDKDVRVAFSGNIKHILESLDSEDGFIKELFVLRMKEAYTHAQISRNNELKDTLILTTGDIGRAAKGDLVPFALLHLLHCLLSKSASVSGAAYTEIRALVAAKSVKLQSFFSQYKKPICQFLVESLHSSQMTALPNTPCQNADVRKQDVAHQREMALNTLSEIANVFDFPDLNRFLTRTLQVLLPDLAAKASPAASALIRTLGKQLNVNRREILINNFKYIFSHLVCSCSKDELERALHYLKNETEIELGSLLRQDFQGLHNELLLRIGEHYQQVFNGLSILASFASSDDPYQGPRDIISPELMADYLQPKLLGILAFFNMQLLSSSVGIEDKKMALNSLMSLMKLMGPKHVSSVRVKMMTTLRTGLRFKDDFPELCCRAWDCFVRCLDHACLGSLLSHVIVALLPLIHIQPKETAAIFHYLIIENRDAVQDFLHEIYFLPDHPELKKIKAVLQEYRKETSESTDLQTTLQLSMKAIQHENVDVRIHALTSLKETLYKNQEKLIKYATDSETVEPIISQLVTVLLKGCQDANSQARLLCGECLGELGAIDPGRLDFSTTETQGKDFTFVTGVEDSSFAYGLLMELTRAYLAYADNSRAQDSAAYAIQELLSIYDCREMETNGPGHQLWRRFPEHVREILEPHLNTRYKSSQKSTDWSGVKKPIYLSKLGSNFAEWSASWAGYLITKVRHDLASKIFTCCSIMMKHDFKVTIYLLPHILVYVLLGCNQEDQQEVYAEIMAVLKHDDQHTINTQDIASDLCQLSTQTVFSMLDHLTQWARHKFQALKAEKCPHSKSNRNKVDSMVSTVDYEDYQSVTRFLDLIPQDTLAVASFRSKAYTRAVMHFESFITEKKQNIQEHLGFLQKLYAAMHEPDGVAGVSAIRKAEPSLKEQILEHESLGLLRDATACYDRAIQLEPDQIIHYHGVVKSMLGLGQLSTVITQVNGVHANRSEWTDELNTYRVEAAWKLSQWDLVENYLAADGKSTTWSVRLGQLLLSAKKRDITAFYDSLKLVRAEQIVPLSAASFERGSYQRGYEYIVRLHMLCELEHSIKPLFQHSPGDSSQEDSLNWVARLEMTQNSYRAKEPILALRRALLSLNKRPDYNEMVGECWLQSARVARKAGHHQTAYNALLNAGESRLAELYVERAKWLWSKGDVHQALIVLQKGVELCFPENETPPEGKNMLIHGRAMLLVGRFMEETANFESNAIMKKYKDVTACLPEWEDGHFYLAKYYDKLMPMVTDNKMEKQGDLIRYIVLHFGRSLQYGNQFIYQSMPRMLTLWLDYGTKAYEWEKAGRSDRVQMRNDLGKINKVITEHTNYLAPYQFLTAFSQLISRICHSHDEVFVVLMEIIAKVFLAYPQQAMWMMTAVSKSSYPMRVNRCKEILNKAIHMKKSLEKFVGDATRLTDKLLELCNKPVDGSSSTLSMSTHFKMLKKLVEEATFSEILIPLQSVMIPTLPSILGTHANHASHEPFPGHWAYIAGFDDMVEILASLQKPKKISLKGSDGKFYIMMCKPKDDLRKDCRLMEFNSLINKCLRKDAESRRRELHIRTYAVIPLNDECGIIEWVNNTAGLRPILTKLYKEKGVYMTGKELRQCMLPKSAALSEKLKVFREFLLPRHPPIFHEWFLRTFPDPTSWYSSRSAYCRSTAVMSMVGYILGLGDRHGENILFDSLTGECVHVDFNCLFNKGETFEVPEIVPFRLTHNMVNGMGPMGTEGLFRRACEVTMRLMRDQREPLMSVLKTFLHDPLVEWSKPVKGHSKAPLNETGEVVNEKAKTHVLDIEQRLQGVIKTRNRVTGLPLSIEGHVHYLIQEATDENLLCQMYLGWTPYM

Row | SMILES | Ki [µM]
1 | CC(C)S(=O)(=O)c1ccc(-c2cnc(N)c(-c3nnc(C(=O)NC4CCNC4)o3)n2)cc1 (stereo not shown) [IA-114, 5-[3-amino-6-(4-isopropylsulfonylphenyl)pyrazin-2-yl]-N-pyrrolidin-3-yl-1,3,4-oxadiazole-2-carboxamide] | 0.1 to 5
2 | CN(C)C(=O)c1ccc(-c2cnc(N)c(-c3nnc(-c4ccco4)o3)n2)cc1 [IA-115, 4-[5-amino-6-[5-(2-furyl)-1,3,4-oxadiazol-2-yl]pyrazin-2-yl]-N,N-dimethyl-benzamide] | 0.01 to 0.1
3 | CC(C)S(=O)(=O)c1ccc(-c2cnc(N)c(-c3nnc(-c4ccccc4)o3)n2)cc1 [IA-116, 5-(4-isopropylsulfonylphenyl)-3-(5-phenyl-1,3,4-oxadiazol-2-yl)pyrazin-2-amine] | ≤ 0.01
4 | CN(C)Cc1ccccc1-c1cnc(N)c(-c2nnc(-c3ccccc3)o2)n1 [IA-118, 5-(2-((dimethylamino)methyl)phenyl)-3-(5-phenyl-1,3,4-oxadiazol-2-yl)pyrazin-2-amine] | 0.1 to 5
5 | CC(C)S(=O)(=O)c1ccc(-c2cnc(N)c(-c3nnc(C(=O)N4CC(N)C4)o3)n2)cc1 [IA-120, (3-aminoazetidin-1-yl)-[5-[3-amino-6-(4-isopropylsulfonylphenyl)pyrazin-2-yl]-1,3,4-oxadiazol-2-yl]methanone] | 0.01 to 0.1
6 | CCNCc1ccc(-c2nnc(-c3nc(-c4ccc(S(=O)(=O)C(C)C)cc4)cnc3N)o2)cc1 [IA-122, 3-[5-[4-(ethylaminomethyl)phenyl]-1,3,4-oxadiazol-2-yl]-5-(4-isopropylsulfonylphenyl)pyrazin-2-amine] | ≤ 0.01
7 | CC(C)S(=O)(=O)c1ccc(-c2cnc(N)c(-c3nnc(-c4cccc([C@H](C)N)c4)o3)n2)cc1 [IA-123, 3-[5-[3-[(1S)-1-aminoethyl]phenyl]-1,3,4-oxadiazol-2-yl]-5-(4-isopropylsulfonylphenyl)pyrazin-2-amine] | ≤ 0.01
8 | CC(C)S(=O)(=O)c1ccc(-c2cnc(N)c(-c3nnc(-c4ccc([C@@H](C)N)cc4)o3)n2)cc1 [IA-124, 3-[5-[4-[(1R)-1-aminoethyl]phenyl]-1,3,4-oxadiazol-2-yl]-5-(4-isopropylsulfonylphenyl)pyrazin-2-amine] | ≤ 0.01
9 | COCc1ccccc1-c1cnc(N)c(-c2nnc(-c3ccccc3)o2)n1 [IA-125, 5-[2-(methoxymethyl)phenyl]-3-(5-phenyl-1,3,4-oxadiazol-2-yl)pyrazin-2-amine] | 0.1 to 5
10 | CC(C)S(=O)(=O)c1ccc(-c2cnc(N)c(-c3nnc(C(=O)O)o3)n2)cc1 [IA-128, 5-[3-amino-6-(4-isopropylsulfonylphenyl)pyrazin-2-yl]-1,3,4-oxadiazole-2-carboxylic acid] | ≤ 0.01
11 | CNCc1ccc(-c2nnc(-c3nc(-c4ccc(S(=O)(=O)C(C)C)cc4)cnc3N)o2)c(F)c1 [IA-130, 3-[5-[2-fluoro-4-(methylaminomethyl)phenyl]-1,3,4-oxadiazol-2-yl]-5-(4-isopropylsulfonylphenyl)pyrazin-2-amine] | ≤ 0.01
12 | CC(=O)OCc1ccc(-c2nnc(-c3nc(-c4ccc(C(=O)N(C)C)cc4)cnc3N)o2)cc1 [IA-131, [4-[5-[3-amino-6-[4-(dimethylcarbamoyl)phenyl]pyrazin-2-yl]-1,3,4-oxadiazol-2-yl]phenyl]methyl acetate] | 0.01 to 0.1
13 | CNCc1ccc(-c2nnc(-c3nc(-c4ccc(S(=O)(=O)C(C)C)cc4)cnc3N)o2)s1 [IA-140, 5-(4-isopropylsulfonylphenyl)-3-[5-[5-(methylaminomethyl)-2-thienyl]-1,3,4-oxadiazol-2-yl]pyrazin-2-amine] | ≤ 0.01
14 | CN(C)C(=O)c1ccc(-c2cnc(N)c(-c3nnc(-c4cccc(N)c4)o3)n2)cc1 [IA-142, 4-[5-amino-6-[5-(3-aminophenyl)-1,3,4-oxadiazol-2-yl]pyrazin-2-yl]-N,N-dimethyl-benzamide] | ≤ 0.01
15 | CC(C)S(=O)(=O)c1ccc(-c2cnc(N)c(-c3nnc(-c4cc(C#N)cs4)o3)n2)cc1 [IA-143, 5-[5-[3-amino-6-(4-isopropylsulfonylphenyl)pyrazin-2-yl]-1,3,4-oxadiazol-2-yl]thiophene-3-carbonitrile] | 0.01 to 0.1
16 | CS(=O)(=O)Nc1cccc(-c2cnc(N)c(-c3nnc(-c4ccccc4)o3)n2)c1 [IA-144, N-[3-[5-amino-6-(5-phenyl-1,3,4-oxadiazol-2-yl)pyrazin-2-yl]phenyl]methanesulfonamide] | 0.01 to 0.1
17 | CCS(=O)(=O)c1ccc(-c2cnc(N)c(-c3nnc(-c4ccccc4)o3)n2)cc1 [IA-149, 5-(4-ethylsulfonylphenyl)-3-(5-phenyl-1,3,4-oxadiazol-2-yl)pyrazin-2-amine] | ≤ 0.01

Second part, the molecule after the results:

Row | Ki [µM] | SMILES
18 | 0.01 to 0.1 | CCCCOC(=O)c1nnc(-c2nc(-c3ccc(S(=O)(=O)C(C)C)cc3)cnc2N)o1 [IA-113, butyl 5-[3-amino-6-(4-isopropylsulfonylphenyl)pyrazin-2-yl]-1,3,4-oxadiazole-2-carboxylate]
19 | 0.1 to 5 | COc1ccc(-c2cnc(N)c(-c3nnc(-c4ccccc4)o3)n2)cn1 [IA-117, 5-(6-methoxy-3-pyridyl)-3-(5-phenyl-1,3,4-oxadiazol-2-yl)pyrazin-2-amine]
20 | ≤ 0.01 | COCCNCc1ccc(-c2nnc(-c3nc(-c4ccc(S(=O)(=O)C(C)C)cc4)cnc3N)o2)cc1 [IA-119, 5-(4-isopropylsulfonylphenyl)-3-[5-[4-[(2-methoxyethylamino)methyl]phenyl]-1,3,4-oxadiazol-2-yl]pyrazin-2-amine]
21 | 0.1 to 5 | CC(C)S(=O)(=O)c1ccccc1-c1cnc(N)c(-c2nnc(-c3ccccc3)o2)n1 [IA-121, 5-(2-isopropylsulfonylphenyl)-3-(5-phenyl-1,3,4-oxadiazol-2-yl)pyrazin-2-amine]
22 | ≤ 0.01 | CN(C)C(=O)c1ccc(-c2cnc(N)c(-c3nnc(-c4ccccc4)o3)n2)c(C(F)F)c1 [IA-126, 4-[5-amino-6-(5-phenyl-1,3,4-oxadiazol-2-yl)pyrazin-2-yl]-3-(difluoromethyl)-N,N-dimethyl-benzamide]
23 | 0.01 to 0.1 | CN(C)C(=O)c1ccc(-c2cnc(N)c(-c3nnc(-c4ccccc4-c4ccsc4)o3)n2)cc1 [IA-127, 4-[5-amino-6-[5-[2-(3-thienyl)phenyl]-1,3,4-oxadiazol-2-yl]pyrazin-2-yl]-N,N-dimethyl-benzamide]
24 | 0.01 to 0.1 | C[C@H](Nc1nnc(-c2nc(-c3ccc(C(=O)N(C)C)cc3)cnc2N)o1)c1ccc(Cl)cc1 [IA-129, 4-[5-amino-6-[5-[[(1 S)-1-(4-chlorophenyl)ethyl]amino]-1,3,4-oxadiazol-2-yl]pyrazin-2-yl]-N,N-dimethyl-benzamide]
25 | ≤ 0.01 | CC(C)S(=O)(=O)c1ccc(-c2cnc(N)c(-c3nnc(-c4ccccc4)o3)n2)c(C#N)c1 [IA-132, 2-[5-amino-6-(5-phenyl-1,3,4-oxadiazol-2-yl)pyrazin-2-yl]-5-isopropylsulfonyl-benzonitrile]
26 | 0.1 to 5 | CC(C)S(=O)(=O)c1ccc(-c2cnc(N)c(-c3nnc(C(=O)N4CCC(N)C4)o3)n2)cc1 (stereo not shown) [IA-133, [5-[3-amino-6-(4-isopropylsulfonylphenyl)pyrazin-2-yl]-1,3,4-oxadiazol-2-yl]-(3-aminopyrrolidin-1-yl)methanone]
27 | 0.1 to 5 | Nc1ncc(-c2ccccc2-c2ccccc2)nc1-c1nnc(-c2ccccc2)o1 [IA-134, 3-(5-phenyl-1,3,4-oxadiazol-2-yl)-5-(2-phenylphenyl)pyrazin-2-amine]
28 | ≤ 0.01 | CN(C)C(=O)c1ccc(-c2cnc(N)c(-c3nnc(-c4cccn4C)o3)n2)cc1 [IA-135, 4-[5-amino-6-[5-(1-methylpyrrol-2-yl)-1,3,4-oxadiazol-2-yl]pyrazin-2-yl]-N,N-dimethyl-benzamide]
29 | 0.01 to 0.1 | CC(C)[S+]([O-])c1ccccc1-c1cnc(N)c(-c2nnc(-c3ccccc3)o2)n1 (stereo not shown) [IA-136, 5-(2-(isopropylsulfinyl)phenyl)-3-(5-phenyl-1,3,4-oxadiazol-2-yl)pyrazin-2-amine]
30 | 0.01 to 0.1 | Nc1ncc(-c2ccccc2CCO)nc1-c1nnc(-c2ccccc2)o1 [IA-137, 2-[2-[5-amino-6-(5-phenyl-1,3,4-oxadiazol-2-yl)pyrazin-2-yl]phenyl]ethanol]
31 | 0.01 to 0.1 | CC(C)S(=O)(=O)c1ccc(-c2cnc(N)c(-c3nnc(N4CCC(CN)CC4)o3)n2)cc1 [IA-138, 3-[5-[4-(aminomethyl)-1-piperidyl]-1,3,4-oxadiazol-2-yl]-5-(4-isopropylsulfonylphenyl)pyrazin-2-amine]
32 | ≤ 0.01 | Nc1ncc(-c2ccncc2)nc1-c1nnc(-c2cccs2)o1 [IA-141, 5-(4-pyridyl)-3-[5-(2-thienyl)-1,3,4-oxadiazol-2-yl]pyrazin-2-amine]
33 | ≤ 0.01 | CC(C)S(=O)(=O)c1ccc(-c2cnc(N)c(-c3nnc(-c4ccc5c(c4)CCNC5)o3)n2)cc1 [IA-145, 5-(4-isopropylsulfonylphenyl)-3-[5-(1,2,3,4-tetrahydroisoquinolin-6-yl)-1,3,4-oxadiazol-2-yl]pyrazin-2-amine]
34 | ≤ 0.01 | CNCc1cccc(-c2nnc(-c3nc(-c4ccc(S(=O)(=O)C(C)C)cc4)cnc3N)o2)c1 [IA-146, 5-(4-isopropylsulfonylphenyl)-3-[5-[3-(methylaminomethyl)phenyl]-1,3,4-oxadiazol-2-yl]pyrazin-2-amine]
35 | ≤ 0.01 | CC(C)S(=O)(=O)c1ccc(-c2cnc(N)c(-c3nnc(-c4ccc(C5CCCN5)s4)o3)n2)cc1 (stereo not shown) [IA-147, 5-(4-isopropylsulfonylphenyl)-3-[5-(5-pyrrolidin-2-yl-2-thienyl)-1,3,4-oxadiazol-2-yl]pyrazin-2-amine]
36 | 0.1 to 5 | CN(C)C(=O)c1ccc(-c2cnc(N)c(-c3nnc(-c4ccccc4)o3)n2)c(C=CF)c1 [IA-148, 4-[5-amino-6-(5-phenyl-1,3,4-oxadiazol-2-yl)pyrazin-2-yl]-3-(2-fluorovinyl)-N,N-dimethyl-benzamide]
37 | 0.1 to 5 | Nc1ncc(-c2cccc(OC(F)(F)F)c2)nc1-c1nnc(-c2ccccc2)o1 [IA-150, 3-(5-phenyl-1,3,4-oxadiazol-2-yl)-5-[3-(trifluoromethoxy)phenyl]pyrazin-2-amine]
